Patent publication US9040714B2 (MannKind Corporation, priority 2010, dated 2015)
Like-named read-outs stand apart in the source and are kept apart here.

How the values were obtained:
[1] = biological target: human IRE-1α (GST-IRE-1α) (Homo sapiens (Human), UniProt O75460); experiment: IRE-1α assay in vitro: cleavage of Cy5/BHQ2-labelled mini-XBP-1 mRNA stem-loop substrate; assay type: biochemical; settings: average IC50 for inhibition of IRE-1α
Description: In some embodiments IRE-la inhibitor compounds form a complex with IRE-1α. […] Other substrates also can be used to detect cleavage. See US 2007/0105123.
A fusion protein comprising glutathione S transferase (GST) and human IRE-1α (GST-IRE-1α) obtained from a 500 ml baculovirus-infected insect cell culture can be used to measure IRE-1α activity in vitro.
Five μl of a reaction mixture comprising IX reaction buffer (5× reaction buffer is 100 mM Hepes pH 7.5, 250 mM KOAc, 2.5 mM MgCl2), 3 mM DTT, and 0.4% polyethylene glycol water is added to each well of 384 well plates. Twenty-five nanoliters of a 1 mM test compound solution are added to test wells. Three μl of a […] IRE-1α preparation are added to each test well and to positive control wells (final concentration 5.82 ng/well). Negative control wells contain only reaction mixture and test compound.
After spinning the plates at 1200 rpm for 30 seconds, 3 μl of an IRE-1α human mini-XBP-1 mRNA stem-loop substrate 5′-[…]-3′ (SEQ ID NO:1), labeled with the fluorescent dye Cy5 at the 5′ end and Black Hole Quencher 2 (BH2) at the 3′ end, are added to each well of a control plate. The plates are again spun at 1200 rpm for 30 seconds. Final concentrations for the assay are: 63 nM IRE-1α substrate, 5.82 ng IRE-1α protein, and 2.5 μM test compound.
The plates are covered with lids and incubated for one hour at 30° C. The plates are then transferred to an ACQUEST™ microplate reader. Data is analyzed using data analysis software, and the percent activity of IRE-1α is calculated.
IC50 for inhibition of IRE-1α of compounds identified in Table 1 was measured as described in EXAMPLE 35.

[2] = system: IRE-1α-mediated XBP-1 splicing in human myeloma MM.1s cells; experiment: Cellular EC50: endogenous XBP-1 splicing in myeloma cells by RT-PCR (DTT stress); assay type: cell-based; settings: MM1.S, read-out: EC50_av
Procedure, shortened: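 MM.1s myeloma cells were pretreated with compound 1.25 h, then stressed with 2 mM DTT for 45 min more (2 h total). XBP-1 was amplified by RT-PCR from total RNA with intron-flanking primers; ED50 taken at 50% spliced XBP-1s of total XBP-1.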

[3] = average cellular EC50, XBP-1 splicing in myeloma cells

Chain of human IRE-1α (GST-IRE-1α) (O75460 19-977): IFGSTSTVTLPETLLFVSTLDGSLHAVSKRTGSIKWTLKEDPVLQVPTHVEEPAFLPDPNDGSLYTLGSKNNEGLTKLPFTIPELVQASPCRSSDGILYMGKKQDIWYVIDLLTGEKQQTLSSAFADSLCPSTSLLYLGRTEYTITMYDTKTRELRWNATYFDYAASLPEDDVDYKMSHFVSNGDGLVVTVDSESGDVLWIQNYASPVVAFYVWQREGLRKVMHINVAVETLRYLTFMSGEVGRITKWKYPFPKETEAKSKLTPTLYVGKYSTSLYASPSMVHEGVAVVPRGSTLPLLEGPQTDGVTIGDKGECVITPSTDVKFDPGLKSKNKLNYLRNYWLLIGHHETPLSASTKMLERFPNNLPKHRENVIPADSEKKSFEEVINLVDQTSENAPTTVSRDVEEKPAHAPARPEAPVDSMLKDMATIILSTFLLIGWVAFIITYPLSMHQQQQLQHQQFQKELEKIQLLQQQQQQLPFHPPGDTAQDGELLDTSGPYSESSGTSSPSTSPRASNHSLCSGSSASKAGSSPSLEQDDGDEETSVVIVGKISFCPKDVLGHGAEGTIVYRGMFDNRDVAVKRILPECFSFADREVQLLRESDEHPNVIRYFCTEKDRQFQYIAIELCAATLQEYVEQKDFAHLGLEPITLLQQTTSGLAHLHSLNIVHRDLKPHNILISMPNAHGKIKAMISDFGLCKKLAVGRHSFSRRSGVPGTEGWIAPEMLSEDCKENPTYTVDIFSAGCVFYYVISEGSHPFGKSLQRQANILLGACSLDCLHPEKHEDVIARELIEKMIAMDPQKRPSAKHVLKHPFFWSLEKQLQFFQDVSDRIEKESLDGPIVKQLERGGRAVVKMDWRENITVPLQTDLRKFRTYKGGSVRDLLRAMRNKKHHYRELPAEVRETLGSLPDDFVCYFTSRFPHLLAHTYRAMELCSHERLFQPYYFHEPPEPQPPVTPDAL

CCc1cc2c(C)c(-c3ccc(C(=O)NCCOC)cc3)c(=O)oc2c(C=O)c1O [Example 118]
IC50 [1]: < 0.1 µM
EC50 [2, 3]: < 10 µM

CCc1cc2c(C)c(-c3ccc(C(=O)N4CCOCC4)cc3)c(=O)oc2c(C=O)c1O [Example 119]
IC50 [1]: < 1 µM
EC50 [2]: > 10 µM

COc1cc(O)c(C=O)c2oc(=O)cc(C)c12 [Example 120]
IC50 [1]: < 1 µM
EC50 [2]: < 10 µM

COCCOc1cc(O)c(C=O)c2oc(=O)cc(C)c12 [Example 121]
IC50 [1]: < 0.1 µM
EC50 [2]: < 10 µM

COCCOCCc1c(C)c2cc(OC)c(O)c(C=O)c2oc1=O [Example 127]
IC50 [1]: < 0.1 µM
EC50 [2, 3]: < 10 µM

Cc1c(CC(=O)N2CCOCC2)c(=O)oc2c(C=O)c(O)ccc12 [Example 129]
IC50 [1]: < 0.1 µM
EC50 [2, 3]: < 10 µM

Cc1c(CC(=O)N2CCN(C)CC2)c(=O)oc2c(C=O)c(O)ccc12 [Example 130]
IC50 [1]: < 0.1 µM
EC50 [2]: < 10 µM

CCOC(=O)Cc1c(C)c2cc(OC)c(O)c(C=O)c2oc1=O [Example 131]
IC50 [1]: < 0.1 µM
EC50 [2]: < 10 µM

COc1cc2c(CN3CCOCC3)c(C)c(=O)oc2c(C=O)c1O [Example 132]
IC50 [1]: < 0.1 µM
EC50 [2, 3]: < 10 µM

COc1cc2c(CN(C)C)c(C)c(=O)oc2c(C=O)c1O [Example 133]
IC50 [1]: < 0.1 µM
EC50 [2, 3]: < 10 µM

COCc1cc(=O)oc2c(C=O)c(O)c(OC)cc12 [Example 136]
IC50 [1]: < 1 µM
EC50 [2, 3]: < 10 µM

COCc1c(C)c(=O)oc2c(C=O)c(O)ccc12 [Example 137]
IC50 [1]: < 0.1 µM
EC50 [2, 3]: < 10 µM

COCCNC(=O)CCc1c(COC)c2cc(OC)c(O)c(C=O)c2oc1=O [Example 138]
IC50 [1]: < 1 µM
EC50 [2, 3]: > 10 µM

COCc1c(CCC(=O)N2CCOCC2)c(=O)oc2c(C=O)c(O)c(OC)cc12 [Example 139]
IC50 [1]: < 0.1 µM
EC50 [2, 3]: < 10 µM

COCc1c(CCC(=O)NCCN2CCOCC2)c(=O)oc2c(C=O)c(O)c(OC)cc12 [Example 140]
IC50 [1]: < 1 µM
EC50 [2, 3]: > 10 µM

COc1cc2c(C)c(-c3ccc(C(=O)N4CCN(C)CC4)s3)c(=O)oc2c(C=O)c1O [Example 141]
IC50 [1]: < 0.1 µM
EC50 [2, 3]: < 10 µM

COc1cc2c(C)c(-c3ccc(C(=O)N4CCOCC4)s3)c(=O)oc2c(C=O)c1O [Example 142]
IC50 [1]: < 0.1 µM
EC50 [2, 3]: < 10 µM

COc1cc2c(C)c(-c3ccc(C(=O)NCCN4CCOCC4)s3)c(=O)oc2c(C=O)c1O [Example 143]
IC50 [1]: < 1 µM
EC50 [2, 3]: < 10 µM

COc1cc2c(C(C)C)cc(=O)oc2c(C=O)c1O [Example 146]
IC50 [1]: < 0.1 µM
EC50 [2, 3]: < 10 µM

COc1cc2c(C)c(CCC(=O)NCCO)c(=O)oc2c(C=O)c1O [Example 147]
IC50 [1]: < 0.1 µM
EC50 [2, 3]: > 10 µM

COc1cc2c(C)c(CC(=O)NCCO)c(=O)oc2c(C=O)c1O [Example 148]
IC50 [1]: < 0.1 µM
EC50 [2, 3]: > 10 µM

COCOCCNC(=O)Cc1c(C)c2cc(OC)c(O)c(C=O)c2oc1=O [Example 149]
IC50 [1]: < 1 µM
EC50 [2, 3]: < 10 µM

COCCNC(=O)c1ccc(-c2c(C)c3cc(Cl)c(O)c(C=O)c3oc2=O)cc1 [Example 150]
IC50 [1]: < 1 µM
EC50 [2]: > 10 µM

Cc1c(-c2ccc(C(=O)NCCN3CCOCC3)cc2)c(=O)oc2c(C=O)c(O)c(Cl)cc12 [Example 151]
IC50 [1]: < 1 µM
EC50 [2, 3]: > 10 µM

COCCNC(=O)CCc1c(C)c2c(OCCOC)cc(O)c(C=O)c2oc1=O [Example 152]
IC50 [1]: < 1 µM
EC50 [2, 3]: < 10 µM

COCCOc1cc(O)c(C=O)c2oc(=O)c(CCC(=O)N3CCOCC3)c(C)c12 [Example 153]
IC50 [1]: < 0.1 µM
EC50 [2, 3]: < 10 µM

COCCOc1cc(O)c(C=O)c2oc(=O)c(CCC(=O)N3CCN(C)CC3)c(C)c12 [Example 154]
IC50 [1]: < 0.1 µM
EC50 [2]: < 10 µM

CCNC(=O)CCc1c(C)c2c(OCCOC)cc(O)c(C=O)c2oc1=O [Example 155]
IC50 [1]: < 1 µM
EC50 [2]: < 10 µM

COCCOc1cc(O)c(C=O)c2oc(=O)c(CCC(=O)NCCN3CCOCC3)c(C)c12 [Example 156]
IC50 [1]: < 1 µM
EC50 [2, 3]: > 10 µM

COCCOc1cc(O)c(C=O)c2oc(=O)c(CCC(=O)NCCN(C)C)c(C)c12 [Example 157]
IC50 [1]: < 1 µM
EC50 [2, 3]: > 10 µM

COCCNC(=O)Cc1c(C)c2cc(OC)c(O)c(C=O)c2oc1=O [Example 166]
IC50 [1]: < 1 µM
EC50 [2, 3]: < 10 µM

COc1cc2c(C)c(CC(=O)N3CCN(C)CC3)c(=O)oc2c(C=O)c1O [Example 168]
IC50 [1]: < 0.1 µM
EC50 [2, 3]: < 10 µM

CCNC(=O)Cc1c(C)c2cc(OC)c(O)c(C=O)c2oc1=O [Example 169]
IC50 [1]: < 0.1 µM
EC50 [2, 3]: < 10 µM

COc1cc2c(C)c(CC(=O)NCCN(C)C)c(=O)oc2c(C=O)c1O [Example 170]
IC50 [1]: < 1 µM
EC50 [2, 3]: < 10 µM

COCCNC(=O)CCc1c(C)c2cc(OC)c(O)c(C=O)c2oc1=O [Example 171]
IC50 [1]: < 0.1 µM
EC50 [2]: < 10 µM

COc1cc2c(C)c(CCC(=O)N3CCOCC3)c(=O)oc2c(C=O)c1O [Example 172]
IC50 [1]: < 0.1 µM
EC50 [2, 3]: < 10 µM

COc1cc2c(C)c(CCC(=O)N3CCN(C)CC3)c(=O)oc2c(C=O)c1O [Example 173]
IC50 [1]: < 0.1 µM
EC50 [2]: < 10 µM

CCNC(=O)CCc1c(C)c2cc(OC)c(O)c(C=O)c2oc1=O [Example 174]
IC50 [1]: < 0.1 µM
EC50 [2, 3]: < 10 µM

COc1cc2c(C)c(CCC(=O)NCCN(C)C)c(=O)oc2c(C=O)c1O [Example 175]
IC50 [1]: < 1 µM
EC50 [2, 3]: > 10 µM

COCCNC(=O)Cc1c(C)c2c(OC)cc(O)c(C=O)c2oc1=O [Example 176]
IC50 [1]: < 0.1 µM
EC50 [2, 3]: < 10 µM

COc1cc(O)c(C=O)c2oc(=O)c(CC(=O)N3CCOCC3)c(C)c12 [Example 177]
IC50 [1]: < 0.1 µM
EC50 [2, 3]: < 10 µM

COc1cc(O)c(C=O)c2oc(=O)c(CC(=O)NCCN3CCOCC3)c(C)c12 [Example 179]
IC50 [1]: < 1 µM
EC50 [2, 3]: < 10 µM

COc1cc(O)c(C=O)c2oc(=O)c(CC(=O)NCCN(C)C)c(C)c12 [Example 180]
IC50 [1]: < 0.1 µM
EC50 [2, 3]: < 10 µM

COCCOc1cc2c(C)c(CCC(=O)N3CCOCC3)c(=O)oc2c(C=O)c1O [Example 181]
IC50 [1]: < 0.1 µM
EC50 [2, 3]: < 10 µM

COCCOc1cc2c(C)c(CCC(=O)N3CCN(C)CC3)c(=O)oc2c(C=O)c1O [Example 182]
IC50 [1]: < 0.1 µM
EC50 [2, 3]: < 10 µM

COCCNC(=O)CCc1c(C)c2cc(OCCOC)c(O)c(C=O)c2oc1=O [Example 184]
IC50 [1]: < 0.1 µM
EC50 [2, 3]: < 10 µM

COCCOc1cc2c(C)c(CCC(=O)NCCN(C)C)c(=O)oc2c(C=O)c1O [Example 185]
IC50 [1]: < 0.1 µM
EC50 [2]: > 10 µM

COCCOc1cc2c(C)c(CCC(=O)NCCN3CCOCC3)c(=O)oc2c(C=O)c1O [Example 186]
IC50 [1]: < 1 µM
EC50 [2, 3]: > 10 µM

COc1cc(O)c(C=O)c2oc(=O)c(CCC(=O)N3CCOCC3)c(C)c12 [Example 192]
IC50 [1]: < 1 µM
EC50 [2, 3]: < 10 µM

COc1cc(O)c(C=O)c2oc(=O)c(CCC(=O)N3CCN(C)CC3)c(C)c12 [Example 193]
IC50 [1]: < 0.1 µM
EC50 [2, 3]: < 10 µM

COCCNC(=O)CCc1c(C)c2c(OC)cc(O)c(C=O)c2oc1=O [Example 194]
IC50 [1]: < 0.1 µM
EC50 [2, 3]: < 10 µM

COc1cc(O)c(C=O)c2oc(=O)c(CCC(=O)NCCN3CCOCC3)c(C)c12 [Example 196]
IC50 [1]: < 0.1 µM
EC50 [2, 3]: < 10 µM

COc1cc2c(C(F)(F)F)cc(=O)oc2c(C=O)c1O [Example 197]
IC50 [1]: < 1 µM
EC50 [2, 3]: < 10 µM

COc1cc2c3c(c(=O)oc2c(C=O)c1O)CCC3 [Example 198]
IC50 [1]: > 1 µM
EC50 [2]: < 10 µM

COc1cc2c(C)c(C)c(=O)oc2c(C=O)c1O [Example 199]
IC50 [1]: < 0.1 µM
EC50 [2, 3]: > 10 µM

COc1cc2c(C)c(C(C)C)c(=O)oc2c(C=O)c1O [Example 200]
IC50 [1]: < 0.1 µM
EC50 [2]: > 10 µM

Cc1c(CCC(=O)NCCN2CCOCC2)c(=O)oc2c(C=O)c(O)ccc12 [Example 201]
IC50 [1]: < 0.1 µM
EC50 [2, 3]: < 10 µM
